ChEMBL document CHEMBL1145370, “Alpha-methylation at benzylic fragment of N-aryl-N'-benzyl ureas provides TRPV1 antagonists with better pharmacokinetic properties and higher efficacy in inflammatory pain model” (Bioorg Med Chem Lett, 2007)

Tests used:
[1] = target: Transient receptor potential cation channel subfamily V member 1 (Homo sapiens, UniProt Q8NER1); assay: Antagonist activity at human TRPV1 by calcium influx assay; type: functional
[2] = Half life in rat at 10 umol/kg, iv; type: ADME, organism-based; details: in vivo
[3] = Half life in dog at 10 umol/kg, iv; type: ADME, organism-based, Canis lupus familiaris; details: in vivo
[4] = Volume of distribution in rat at 10 umol/kg, iv; type: ADME, organism-based; details: in vivo, read-out: Vbeta
[5] = Volume of distribution in dog at 10 umol/kg, iv; type: ADME, organism-based, Canis lupus familiaris; details: in vivo, read-out: Vbeta
[6] = Plasma clearance in rat at 10 umol/kg, iv; type: ADME, organism-based
[7] = Plasma clearance in dog at 10 umol/kg, iv; type: ADME, organism-based, Canis lupus familiaris
[8] = Bioavailability in dog at 10 umol/kg, po; type: ADME, organism-based, Canis lupus familiaris; details: in vivo
[9] = Bioavailability in rat at 10 umol/kg, po; type: ADME, organism-based; details: in vivo

Sequence of Transient receptor potential cation channel subfamily V member 1 (Q8NER1 whole entry): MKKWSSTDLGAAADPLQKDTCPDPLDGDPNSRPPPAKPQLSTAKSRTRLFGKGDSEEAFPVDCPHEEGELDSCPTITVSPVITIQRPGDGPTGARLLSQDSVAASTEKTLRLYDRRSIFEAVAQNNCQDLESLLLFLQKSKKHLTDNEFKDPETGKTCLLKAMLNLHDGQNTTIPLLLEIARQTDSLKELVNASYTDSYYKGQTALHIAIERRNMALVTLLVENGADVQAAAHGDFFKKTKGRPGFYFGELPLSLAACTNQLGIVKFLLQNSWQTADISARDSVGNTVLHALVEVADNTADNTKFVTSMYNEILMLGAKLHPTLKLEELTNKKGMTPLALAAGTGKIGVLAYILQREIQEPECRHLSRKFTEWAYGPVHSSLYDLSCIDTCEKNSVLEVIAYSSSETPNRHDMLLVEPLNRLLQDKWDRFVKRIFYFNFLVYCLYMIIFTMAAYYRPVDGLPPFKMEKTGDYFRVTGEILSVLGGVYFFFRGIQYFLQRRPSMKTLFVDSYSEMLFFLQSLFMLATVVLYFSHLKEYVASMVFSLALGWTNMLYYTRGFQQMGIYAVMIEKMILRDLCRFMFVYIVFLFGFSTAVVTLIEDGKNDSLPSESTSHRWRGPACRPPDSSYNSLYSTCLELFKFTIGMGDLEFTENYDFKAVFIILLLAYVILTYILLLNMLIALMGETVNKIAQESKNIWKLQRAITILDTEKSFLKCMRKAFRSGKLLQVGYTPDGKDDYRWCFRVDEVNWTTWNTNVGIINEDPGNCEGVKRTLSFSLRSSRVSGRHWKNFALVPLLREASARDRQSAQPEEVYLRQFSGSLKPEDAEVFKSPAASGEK

SMILES | IC50 [1] | also measured
CC(NC(=O)Nc1cccc2[nH]ncc12)c1ccc(C(F)(F)F)cc1 (racemic) | 47 nM | 
O=C(Nc1cccc2cnccc12)NC(c1ccccc1)c1ccccc1 | 600 nM | 
Cc1cc(C(C)(C)C)ccc1C(C)NC(=O)Nc1cccc2cnccc12 (stereo not given) | 46 nM | 
N#CCC(NC(=O)Nc1cccc2cnccc12)c1ccccc1 (stereo not given) | 15900 nM | 
CC(C)(NC(=O)Nc1cccc2cnccc12)c1ccc(C(F)(F)F)cc1 | 94 nM | 
Cc1ccc([C@H](C)NC(=O)Nc2cccc3[nH]ncc23)cc1 | 749 nM | 
O=C(Nc1cccc2cnccc12)NC(c1ccc(C(F)(F)F)cc1)C1CC1 (stereo not given) | 149 nM | 
CC(NC(=O)Nc1cccc2cnccc12)c1ccc(C(C)(C)C)cc1C(C)(C)C (stereo not given) | 17 nM | 
CC(C)(NC(=O)Nc1cccc2cnccc12)c1ccc(Cl)cc1 | 143 nM | 
C[C@H](NC(=O)Nc1cccc2[nH]ncc12)c1ccc(C(F)(F)F)cc1 | 248 nM | 
CCc1cc(C(C)(C)C)ccc1C(C)NC(=O)Nc1cccc2cnccc12 (stereo not given) | 20 nM | 
CCC(NC(=O)Nc1cccc2cnccc12)c1ccc(C(F)(F)F)c(F)c1 (stereo not given) | 109 nM | 
O=C(NCc1ccc(C(F)(F)F)cc1)Nc1cccc2cnccc12 |  | half-life [2]: 0.6 h; half-life [3]: 1 h; Vd [4]: 0.6 L/kg; Vd [5]: 0.5 L/kg; clearance [6]: 10 mL/min/kg; clearance [7]: 6.67 mL/min/kg; bioavailability [8]: 32%
C[C@@H](NC(=O)Nc1cccc2[nH]ncc12)c1ccc(C(F)(F)F)cc1 | 41 nM | half-life [2]: 2.1 h; Vd [4]: 2.9 L/kg; bioavailability [9]: 53%
C[C@H](NC(=O)Nc1cccc2[nH]ncc12)c1cccc2ccccc12 | 3750 nM | 
CC(NC(=O)Nc1cccc2cnccc12)c1ccc(C(F)(F)F)c(F)c1 (stereo not given) | 19 nM | 
O=C(Nc1cccc2cnccc12)NC(c1ccc(C(F)(F)F)cc1)C1CCCC1 (stereo not given) | 476 nM | 
O=C(Nc1cccc2cnccc12)NC(c1ccc(C(F)(F)F)cc1)C1CCCCC1 (stereo not given) | 287 nM | 
CC(C)(C)c1ccc(C(NC(=O)Nc2cccc3cnccc23)c2ccccc2)cc1 (stereo not given) | 125 nM | 
Cc1ccc([C@@H](C)NC(=O)Nc2cccc3[nH]ncc23)cc1 | 73 nM | 
CC(NC(=O)Nc1cccc2cnccc12)c1ccc(C(F)(F)F)cc1 (stereo not given) | 22 nM | half-life [2]: 1.1 h; half-life [3]: 1.6 h; Vd [4]: 1.1 L/kg; Vd [5]: 1.1 L/kg; clearance [6]: 11.7 mL/min/kg; clearance [7]: 8.33 mL/min/kg; bioavailability [9]: 47%; bioavailability [8]: 98%
CC(NC(=O)Nc1cccc2cnccc12)c1ccc(C(C)(C)C)cc1 (stereo not given) | 24 nM | 
O=C(Nc1cccc2cnccc12)NC(c1ccccc1)c1ccc(C(F)(F)F)cc1 (stereo not given) | 147 nM | 
CCC(NC(=O)Nc1cccc2cnccc12)c1ccccc1 (stereo not given) | 2580 nM | 
CC(NC(=O)Nc1cccc2cnccc12)c1ccc(Br)cc1 (stereo not given) | 26 nM | 
O=C(Nc1cccc2cnccc12)NC(c1ccccc1)c1ccc(N2CCCCC2)cc1 (stereo not given) | 171 nM | 
CN(C)CC(NC(=O)Nc1cccc2cnccc12)c1ccccc1 (stereo not given) | 31000 nM | 
C[C@@H](NC(=O)Nc1cccc2[nH]ncc12)c1cccc2ccccc12 | 123 nM | 
